According to ChEMBL document CHEMBL1201862, “PubChem BioAssay data set” (2004):
The source made the active and inactive calls.

How the values were obtained:
[1] = target: Dual specificity tyrosine-phosphorylation-regulated kinase 1A (Rattus norvegicus, UniProt Q63470); type: biochemical, Homo sapiens
[2] = target: FAD-linked sulfhydryl oxidase ALR (Homo sapiens, UniProt P55789); test: ALR-catalysed DTT oxidation blockers – biochemical, H2O2 detection, luminescence, cherry-pick, dose response (AID 493248)
[3] = target: T1, Calpain-2 catalytic subunit (Sus scrofa, UniProt P43367); test: m-calpain protease blockers, concentration series – biochemical, fluorogenic peptide substrate, dose response (AID 1420); type: functional
T1 sequence (P43367 whole entry): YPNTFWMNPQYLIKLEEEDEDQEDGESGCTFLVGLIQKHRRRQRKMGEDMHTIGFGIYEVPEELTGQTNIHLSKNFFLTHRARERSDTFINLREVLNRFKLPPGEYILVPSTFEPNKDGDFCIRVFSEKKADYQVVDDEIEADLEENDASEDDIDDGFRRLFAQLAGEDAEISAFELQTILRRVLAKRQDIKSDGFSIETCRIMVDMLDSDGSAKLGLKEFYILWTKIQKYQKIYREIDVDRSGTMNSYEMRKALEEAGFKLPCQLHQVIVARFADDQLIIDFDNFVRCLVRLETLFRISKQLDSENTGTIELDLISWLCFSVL

Cytochrome P450 3A4 [4] = target: T2, Cytochrome P450 3A4 (Homo sapiens, UniProt P08684); conditions: Potency
T2 sequence (P08684 whole entry): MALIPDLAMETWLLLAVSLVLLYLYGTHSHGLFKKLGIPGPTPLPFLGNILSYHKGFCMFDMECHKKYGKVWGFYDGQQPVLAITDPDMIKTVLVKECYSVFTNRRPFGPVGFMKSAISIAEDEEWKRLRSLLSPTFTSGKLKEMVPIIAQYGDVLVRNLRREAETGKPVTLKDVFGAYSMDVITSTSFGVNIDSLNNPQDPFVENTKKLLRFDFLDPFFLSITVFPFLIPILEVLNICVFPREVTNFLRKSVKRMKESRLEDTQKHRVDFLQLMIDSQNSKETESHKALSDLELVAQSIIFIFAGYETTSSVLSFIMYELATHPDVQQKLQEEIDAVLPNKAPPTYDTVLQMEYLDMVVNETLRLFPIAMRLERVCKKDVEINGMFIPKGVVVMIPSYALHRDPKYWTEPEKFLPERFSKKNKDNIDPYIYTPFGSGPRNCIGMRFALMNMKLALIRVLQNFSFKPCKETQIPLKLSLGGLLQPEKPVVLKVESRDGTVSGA

Paired box protein Pax-8 = Paired box protein Pax-8 (Homo sapiens, UniProt Q06710); test: PAX8 transcriptional activity inhibition in RMG-I – RMG-I cells, luciferase, cherry-pick, dose response (AID 687027); type: functional, cell-based;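 note: luciferase reporter driven by Pax8 target thyroperoxidase promoter measured by SteadyGlo luminescence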
[5] = viability loss in HepG2 hepatoma cells – cell-based, ATP luminescence, cherry-pick, activator set 2, cytotoxicity control, dose response (AID 1053143); type: functional
[6] = target: T3, Microphthalmia-associated transcription factor (Homo sapiens, UniProt O75030); test: reducers of TRPM1 reporter luminescence, concentration series – cell-based, SK-MEL-5, cherry-picked, set 3, MITF inhibitor project, dose response (AID 493073); type: functional;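 note: SK-MEL-5 melanoma cells with luciferase driven by the MITF target TRPM1 promoter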
T3 sequence (O75030 whole entry): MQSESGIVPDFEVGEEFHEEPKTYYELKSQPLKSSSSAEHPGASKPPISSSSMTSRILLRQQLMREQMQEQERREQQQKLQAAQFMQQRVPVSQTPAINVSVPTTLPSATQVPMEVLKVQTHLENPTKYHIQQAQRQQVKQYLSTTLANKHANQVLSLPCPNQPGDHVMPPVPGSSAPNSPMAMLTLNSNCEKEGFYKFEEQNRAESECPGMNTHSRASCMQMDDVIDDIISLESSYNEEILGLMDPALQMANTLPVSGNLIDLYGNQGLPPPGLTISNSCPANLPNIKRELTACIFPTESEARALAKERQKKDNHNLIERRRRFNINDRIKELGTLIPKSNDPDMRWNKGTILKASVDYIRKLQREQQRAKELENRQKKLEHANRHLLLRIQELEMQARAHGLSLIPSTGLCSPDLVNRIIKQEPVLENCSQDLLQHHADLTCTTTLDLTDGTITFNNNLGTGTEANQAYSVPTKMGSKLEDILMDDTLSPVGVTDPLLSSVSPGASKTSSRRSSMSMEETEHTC

Cytochrome P450 2C19 = Cytochrome P450 2C19 (Homo sapiens, UniProt P33261); test: Cytochrome panel assay with activity outcomes. Panel member name: p450-cyp2c19 Compounds with AC50 equal or less than 10 uM are considered active; type: functional; conditions: read-out: AC50
Cytochrome P450 3A4 [7] = target: T2, Cytochrome P450 3A4
Cytochrome P450 2C9 = Cytochrome P450 2C9 (Homo sapiens, UniProt P11712)
Cytochrome P450 2C9, sequence (P11712 whole entry): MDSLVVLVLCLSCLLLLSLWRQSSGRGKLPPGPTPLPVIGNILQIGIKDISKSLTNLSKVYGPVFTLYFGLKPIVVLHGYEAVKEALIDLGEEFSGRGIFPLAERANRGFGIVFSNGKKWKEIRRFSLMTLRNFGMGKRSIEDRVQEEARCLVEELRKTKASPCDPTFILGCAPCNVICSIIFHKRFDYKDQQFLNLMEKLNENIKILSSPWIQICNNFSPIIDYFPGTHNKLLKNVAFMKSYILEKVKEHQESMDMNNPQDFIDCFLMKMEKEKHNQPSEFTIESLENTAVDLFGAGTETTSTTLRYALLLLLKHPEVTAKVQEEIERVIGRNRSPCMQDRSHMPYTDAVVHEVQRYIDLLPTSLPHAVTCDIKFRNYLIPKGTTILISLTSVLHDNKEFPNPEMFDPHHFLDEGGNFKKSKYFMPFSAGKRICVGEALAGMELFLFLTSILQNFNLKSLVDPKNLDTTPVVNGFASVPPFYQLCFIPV

Vero = test: cells; type: functional; conditions: Chlorocebus sabaeus
[8] = HEK-293T cell viability reduction – luminescence, B-cell screen hits, cytotoxicity control for BCR NF-kB inhibitor project, dose response (AID 489021); type: functional, cell-based;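 note: HEK-293T cells carrying an NF-kB luciferase reporter; cells exposed to compound for about 14 hours before viability readout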
[9] = target: T4, Peroxisome proliferator-activated receptor gamma/Nuclear receptor coactivator 2 (Homo sapiens, UniProt P37231); test: TR-FRET dose response biochemical High Throughput Screening assay for agonists of the steroid receptor coactivator 2 (SRC-2) recruitment by the peroxisome proliferator-activated receptor gamma (PPAR gamma): non-selective agonists. [Related pubchem assays: 1297, 1032 ]; type: functional
T4 sequence (P37231 whole entry): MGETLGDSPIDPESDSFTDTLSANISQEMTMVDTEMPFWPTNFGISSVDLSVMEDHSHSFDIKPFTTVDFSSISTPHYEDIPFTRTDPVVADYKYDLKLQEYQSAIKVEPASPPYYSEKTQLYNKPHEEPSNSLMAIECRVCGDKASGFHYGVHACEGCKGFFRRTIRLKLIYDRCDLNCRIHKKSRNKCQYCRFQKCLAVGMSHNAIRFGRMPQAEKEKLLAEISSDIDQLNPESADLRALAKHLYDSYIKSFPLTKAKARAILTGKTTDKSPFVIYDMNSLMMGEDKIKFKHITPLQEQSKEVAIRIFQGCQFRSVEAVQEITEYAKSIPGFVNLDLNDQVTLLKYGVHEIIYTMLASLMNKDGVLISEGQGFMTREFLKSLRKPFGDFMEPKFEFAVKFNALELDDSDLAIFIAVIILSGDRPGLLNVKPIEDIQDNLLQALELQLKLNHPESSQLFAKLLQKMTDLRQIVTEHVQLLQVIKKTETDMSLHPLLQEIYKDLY
T4 sequence (Q15596 whole entry, further chain): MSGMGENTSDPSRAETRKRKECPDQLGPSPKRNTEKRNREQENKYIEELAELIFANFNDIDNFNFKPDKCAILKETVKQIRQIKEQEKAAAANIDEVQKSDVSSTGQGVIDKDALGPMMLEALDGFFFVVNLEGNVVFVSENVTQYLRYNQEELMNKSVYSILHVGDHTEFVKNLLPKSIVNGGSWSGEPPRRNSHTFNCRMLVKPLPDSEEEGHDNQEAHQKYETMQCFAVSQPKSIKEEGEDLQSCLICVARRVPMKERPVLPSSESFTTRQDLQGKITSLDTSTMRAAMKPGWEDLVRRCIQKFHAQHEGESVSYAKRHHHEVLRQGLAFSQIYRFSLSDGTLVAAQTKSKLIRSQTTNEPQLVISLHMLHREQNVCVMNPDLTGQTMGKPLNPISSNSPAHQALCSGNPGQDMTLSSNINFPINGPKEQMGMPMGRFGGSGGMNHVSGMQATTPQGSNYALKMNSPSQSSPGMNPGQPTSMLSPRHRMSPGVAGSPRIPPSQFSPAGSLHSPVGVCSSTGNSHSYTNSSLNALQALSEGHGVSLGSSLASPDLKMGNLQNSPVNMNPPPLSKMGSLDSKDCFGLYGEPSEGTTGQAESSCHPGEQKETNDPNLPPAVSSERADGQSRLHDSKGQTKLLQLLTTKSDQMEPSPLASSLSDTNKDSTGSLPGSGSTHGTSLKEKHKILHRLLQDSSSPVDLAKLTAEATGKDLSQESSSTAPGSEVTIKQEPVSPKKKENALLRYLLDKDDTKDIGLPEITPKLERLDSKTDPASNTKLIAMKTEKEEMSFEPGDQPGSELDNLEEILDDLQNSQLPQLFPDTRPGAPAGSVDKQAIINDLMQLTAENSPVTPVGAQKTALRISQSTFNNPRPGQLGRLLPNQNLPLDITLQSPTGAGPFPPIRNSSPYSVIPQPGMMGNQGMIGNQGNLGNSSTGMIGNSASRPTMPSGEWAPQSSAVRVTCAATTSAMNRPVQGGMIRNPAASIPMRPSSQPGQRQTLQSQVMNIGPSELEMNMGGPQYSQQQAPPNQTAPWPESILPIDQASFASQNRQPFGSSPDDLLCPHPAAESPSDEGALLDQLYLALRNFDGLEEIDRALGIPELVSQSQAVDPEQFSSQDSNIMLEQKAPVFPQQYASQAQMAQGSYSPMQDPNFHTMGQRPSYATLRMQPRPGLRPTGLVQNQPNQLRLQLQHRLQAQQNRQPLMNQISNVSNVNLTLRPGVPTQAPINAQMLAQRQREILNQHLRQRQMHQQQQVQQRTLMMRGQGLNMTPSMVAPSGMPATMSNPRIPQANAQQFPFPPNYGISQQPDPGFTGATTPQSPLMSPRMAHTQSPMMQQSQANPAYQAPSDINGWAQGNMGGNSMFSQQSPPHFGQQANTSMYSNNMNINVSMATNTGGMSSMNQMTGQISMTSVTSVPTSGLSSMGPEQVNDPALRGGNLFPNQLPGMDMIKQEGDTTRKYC

[10] = target: T5, Peroxisome proliferator-activated receptor gamma/Nuclear receptor coactivator 3 (Homo sapiens, UniProt P37231); test: TR-FRET dose response biochemical High Throughput Screening assay for agonists of the steroid receptor coactivator 3 (SRC-3) recruitment by the peroxisome proliferator-activated receptor gamma (PPAR gamma): non-selective agonists. [Related pubchem assays: 1301 (Confirmation screen.), 1048 (Primary screen.)]; type: functional
T5 sequence (P37231 whole entry): as the sequence (P37231 whole entry) above
T5 sequence (Q9Y6Q9 whole entry, further chain): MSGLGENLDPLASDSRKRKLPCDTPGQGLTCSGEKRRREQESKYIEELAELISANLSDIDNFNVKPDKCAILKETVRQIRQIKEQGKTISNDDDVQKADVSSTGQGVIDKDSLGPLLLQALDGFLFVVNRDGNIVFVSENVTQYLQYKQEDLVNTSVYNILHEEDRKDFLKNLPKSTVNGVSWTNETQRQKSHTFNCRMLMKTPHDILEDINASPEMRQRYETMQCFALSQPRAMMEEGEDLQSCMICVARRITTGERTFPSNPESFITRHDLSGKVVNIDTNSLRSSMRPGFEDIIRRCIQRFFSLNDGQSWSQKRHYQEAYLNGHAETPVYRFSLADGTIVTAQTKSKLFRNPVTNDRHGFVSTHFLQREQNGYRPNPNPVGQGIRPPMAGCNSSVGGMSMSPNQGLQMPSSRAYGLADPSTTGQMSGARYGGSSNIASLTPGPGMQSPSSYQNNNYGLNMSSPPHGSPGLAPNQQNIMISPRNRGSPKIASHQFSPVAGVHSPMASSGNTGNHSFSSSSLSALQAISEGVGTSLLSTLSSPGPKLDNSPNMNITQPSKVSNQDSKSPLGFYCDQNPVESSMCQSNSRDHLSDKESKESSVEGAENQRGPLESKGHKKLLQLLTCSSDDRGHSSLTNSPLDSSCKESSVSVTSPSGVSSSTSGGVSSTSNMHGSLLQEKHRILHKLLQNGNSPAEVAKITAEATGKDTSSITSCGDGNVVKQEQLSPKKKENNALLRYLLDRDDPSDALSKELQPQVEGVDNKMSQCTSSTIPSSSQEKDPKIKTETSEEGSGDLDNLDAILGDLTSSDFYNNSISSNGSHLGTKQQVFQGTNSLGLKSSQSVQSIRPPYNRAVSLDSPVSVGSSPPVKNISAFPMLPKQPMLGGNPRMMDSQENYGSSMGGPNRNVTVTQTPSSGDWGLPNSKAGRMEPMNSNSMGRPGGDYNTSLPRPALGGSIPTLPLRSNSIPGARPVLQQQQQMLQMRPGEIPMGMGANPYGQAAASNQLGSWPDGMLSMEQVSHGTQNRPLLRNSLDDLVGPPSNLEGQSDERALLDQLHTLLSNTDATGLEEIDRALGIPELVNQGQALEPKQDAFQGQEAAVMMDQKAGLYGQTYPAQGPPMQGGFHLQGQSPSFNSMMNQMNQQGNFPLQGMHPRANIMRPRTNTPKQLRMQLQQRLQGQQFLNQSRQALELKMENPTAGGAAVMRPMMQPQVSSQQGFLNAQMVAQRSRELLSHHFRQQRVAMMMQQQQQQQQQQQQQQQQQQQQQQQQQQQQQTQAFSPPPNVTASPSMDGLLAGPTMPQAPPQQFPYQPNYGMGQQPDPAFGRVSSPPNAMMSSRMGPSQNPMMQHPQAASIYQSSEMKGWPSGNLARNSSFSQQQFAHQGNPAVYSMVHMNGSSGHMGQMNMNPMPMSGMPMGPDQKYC

[11] = target: T6, Peroxisome proliferator-activated receptor gamma/Nuclear receptor coactivator 1 (Homo sapiens, UniProt P37231); test: TR-FRET dose response biochemical High Throughput Screening assay for agonists of the steroid receptor coactivator 1 (SRC-1) recruitment by the peroxisome proliferator-activated receptor gamma (PPAR gamma): non-selective agonists. [Related pubchem assays (depositor defined):AID1300, AID1808, AID504735, AID631]; type: protein assay
Troponin, cardiac muscle = Troponin, cardiac muscle (Homo sapiens, UniProt P19429+P45379+P63316); test: Fluorescence-based biochemical high throughput dose response assay for activators of the calcium sensitivity of cardiac Regulated Thin Filaments (RTF). [Related pubchem assays (depositor defined):AID493008, AID493018, AID504382, AID504383]; type: protein-complex assay
Cytochrome P450 1A2 = target: T7, Cytochrome P450 1A2 (Homo sapiens, UniProt P05177);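 note: PubChem cytochrome P450 panel assay, CYP1A2 panel member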
T7 sequence (P05177 whole entry): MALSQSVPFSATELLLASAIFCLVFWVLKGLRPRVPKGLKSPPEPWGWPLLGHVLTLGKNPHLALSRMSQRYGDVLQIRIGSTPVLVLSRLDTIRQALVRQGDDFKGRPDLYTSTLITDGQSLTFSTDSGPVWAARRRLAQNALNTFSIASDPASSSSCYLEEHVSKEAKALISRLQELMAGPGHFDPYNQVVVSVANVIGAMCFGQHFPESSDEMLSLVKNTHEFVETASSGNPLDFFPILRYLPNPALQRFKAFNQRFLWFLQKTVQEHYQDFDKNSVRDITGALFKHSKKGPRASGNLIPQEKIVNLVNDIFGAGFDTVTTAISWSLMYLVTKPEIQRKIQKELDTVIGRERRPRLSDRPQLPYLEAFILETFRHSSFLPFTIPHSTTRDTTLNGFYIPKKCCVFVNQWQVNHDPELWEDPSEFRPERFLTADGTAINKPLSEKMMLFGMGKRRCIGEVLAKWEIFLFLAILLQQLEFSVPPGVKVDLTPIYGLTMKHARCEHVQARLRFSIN

[12] = target: T6, Peroxisome proliferator-activated receptor gamma/Nuclear receptor coactivator 1; type: functional
[13] = target: T4, Peroxisome proliferator-activated receptor gamma/Nuclear receptor coactivator 2; type: functional
[14] = target: T5, Peroxisome proliferator-activated receptor gamma/Nuclear receptor coactivator 3; type: functional
[15] = Luminescence Cell-Based Dose Retest to Confirm Inhibitors of Cancer Stem Cells. [Related pubchem assays (depositor defined):AID2717, AID2721]; type: functional; conditions: Homo sapiens
[16] = target: T8, Zinc finger protein mex-5 (Caenorhabditis elegans, UniProt Q9XUB2); test: potency of MEX-5 RNA-binding blockers – biochemical, C. elegans, fluorescence polarization, dose response (AID 1960)
T8 sequence (Q9XUB2 whole entry): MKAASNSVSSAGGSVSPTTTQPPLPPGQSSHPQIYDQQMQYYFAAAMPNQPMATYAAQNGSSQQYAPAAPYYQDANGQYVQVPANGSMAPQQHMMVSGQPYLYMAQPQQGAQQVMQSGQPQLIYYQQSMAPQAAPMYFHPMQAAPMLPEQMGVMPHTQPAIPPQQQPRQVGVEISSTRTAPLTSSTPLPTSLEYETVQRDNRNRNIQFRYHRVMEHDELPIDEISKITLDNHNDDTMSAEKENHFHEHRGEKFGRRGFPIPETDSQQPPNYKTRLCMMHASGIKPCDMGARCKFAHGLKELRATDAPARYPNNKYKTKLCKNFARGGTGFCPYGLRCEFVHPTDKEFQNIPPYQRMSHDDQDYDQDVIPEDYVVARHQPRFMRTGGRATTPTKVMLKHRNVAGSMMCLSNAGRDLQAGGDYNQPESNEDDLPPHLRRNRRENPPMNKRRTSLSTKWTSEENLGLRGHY

[17] = target: T9, RNA-binding protein pos-1 (Caenorhabditis elegans, UniProt G5EF15); test: disruptors of C. elegans POS-1 RNA interaction – biochemical, fluorescence polarization, dose response (AID 1964);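 note: purified POS-1 fused to maltose binding protein made in E. coli; potency of compounds blocking POS-1 binding to fluorescent RNA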
T9 sequence (G5EF15 whole entry): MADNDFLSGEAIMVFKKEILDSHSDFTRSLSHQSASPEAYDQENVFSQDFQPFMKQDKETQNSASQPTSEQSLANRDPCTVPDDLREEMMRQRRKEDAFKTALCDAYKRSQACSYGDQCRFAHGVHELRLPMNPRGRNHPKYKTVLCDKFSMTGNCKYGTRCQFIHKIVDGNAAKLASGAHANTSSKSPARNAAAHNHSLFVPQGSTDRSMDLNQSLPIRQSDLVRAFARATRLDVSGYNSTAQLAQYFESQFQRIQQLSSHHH

H4 = test: Luminescence Cell-Based Dose Response HTS to Identify Activators of 5'UTR Stem-Loop Driven Prion Protein mRNA Translation in H4 Neuroglioblastoma Cells. [Related pubchem assays: 1829 (Project Summary), 1814 (Primary HTS)]; type: functional; conditions: Homo sapiens
Cytochrome P450 2D6 = Cytochrome P450 2D6 (Homo sapiens, UniProt P10635);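 note: CYP2D6 member of a cytochrome P450 panel assay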

COc1cc(/C=C2/SC(=O)NC2=O)ccc1Oc1ccc([N+](=O)[O-])cc1[N+](=O)[O-]
AC50 [1]: 0.992 µM (active) | AC50 [2]: 0.156 µM (active) | IC50 [3]: 7.36 µM (not active)

S=C(NC1CCCCC1)NC1CCCCC1
AC50 (Cytochrome P450 3A4 [4]): 25.1 µM (inconclusive)

COc1cc(/C=C/C(=O)N2CCC=CC2=O)cc(OC)c1OC [PIPLARTINE]
AC50 (Paired box protein Pax-8): 2.69 µM (active) | AC50 [5]: 17.4 µM (active) | AC50 [6]: 7.4 µM (active) | AC50 (Cytochrome P450 3A4 [4]): 0.0501 µM (inconclusive)

CN(CCCNC(=O)C1CCN(S(=O)(=O)c2cccc3nsnc23)CC1)Cc1ccccc1
AC50 (Cytochrome P450 2C19): 39.8 µM (inconclusive) | AC50 (Cytochrome P450 3A4 [7]): 3.16 µM (inconclusive) | AC50 (Cytochrome P450 2C9): inconclusive

Cc1nc(NC2CCCCC2)c2nc(-c3ccccc3)n(CCN3CCCC3)c2n1
AC50 (Cytochrome P450 3A4 [4]): 25.1 µM (inconclusive)

Cc1ccc(C)c(OCC(=O)OCc2csc(CC(=O)Nc3ccccc3C)n2)c1
CC50 (Vero): > 25 µM (active)

CCn1c(=O)cc(SCC(=O)N2CCN(C)CC2)c2ccccc21
IC50 [8]: > 80 µM (inactive) | EC50 [9]: > 79.4 µM (not active) | EC50 [10]: > 79.4 µM (not active) | EC50 [11]: > 79.4 µM (inactive)

O=C(CSc1nc2cc(Br)c[nH]c-2n1)c1cccc([N+](=O)[O-])c1
EC50 (Troponin, cardiac muscle): > 71.5 µM (inactive)

COc1ccc(/C=C2/SC(=S)N(CCCC(=O)N3CCN(C)CC3)C2=O)cc1
CC50 (Vero): > 25 µM (active)

Cn1c(=O)cc(SCC(=O)Nc2cccnc2)c2ccccc21
EC50 [9]: > 79.4 µM (not active) | EC50 [10]: > 79.4 µM (not active) | EC50 [11]: > 79.4 µM (inactive)

CCO/C(=C/c1sc2ccc(OC)cc2[n+]1CCCS(=O)(=O)[O-])CC
AC50 [1]: 9.02 µM (active)

CCCN(CCC)CCc1c[nH]c2ccc(C(N)=O)cc12
AC50 (Cytochrome P450 1A2): 15.8 µM (inconclusive) | AC50 (Cytochrome P450 2C9): inconclusive

CCOC(=O)c1s/c(=N\C(=O)c2ccc(OC)c(OC)c2)n(C)c1C
EC50 [12]: 8.1 µM (active) | EC50 [13]: 12.2 µM (not active) | EC50 [14]: 11.4 µM (not active)

O=C(NCc1ccco1)c1nc(O)c2nnn(Cc3ccccc3Cl)c2n1
AC50 [6]: 14.4 µM (active) | CC50 (Vero): 18.9 µM (active) | AC50 [15]: 2.4 µM (active)

Nc1ccccc1-c1nnc(S)s1
EC50 [9]: 15.6 µM (not active) | EC50 [10]: > 79.4 µM (not active) | EC50 [11]: 14.9 µM (inactive)

CN(Cc1ccccc1)C(=O)c1[nH]cnc1C(=O)NCc1ccccc1
EC50 (Troponin, cardiac muscle): > 71.6 µM (inactive)

O=C(Cc1nc2ccccc2nc1O)c1ccccc1
EC50 [16]: > 300 µM (inconclusive) | EC50 [12]: > 79.4 µM (not active) | EC50 [17]: 42.5 µM (inconclusive) | EC50 [13]: > 79.4 µM (not active) | EC50 (H4): 0.419 µM (active) | EC50 [14]: > 79.4 µM (not active)

CCCCN1CCC(CCC(=O)c2cc(Cl)c(N)cc2OC)CC1
AC50 (Cytochrome P450 2C9): inconclusive | AC50 (Cytochrome P450 2D6): 12.6 µM (inconclusive)

NC(=O)CNCCC(c1ccccc1)c1ccccc1
AC50 (Cytochrome P450 3A4 [4]): 15.8 µM (inconclusive)

CC(=O)N1N=C(c2ccc(Br)cc2)CC1c1cn(C)c2ccccc12 (stereo not drawn)
EC50 [9]: 18.3 µM (not active) | EC50 [10]: > 79.4 µM (not active) | EC50 [11]: 18.5 µM (inactive)

CCOc1ccc2ccccc2c1CNCCN1CCOCC1
EC50 (Troponin, cardiac muscle): > 71.5 µM (inactive)
